Experiments:
ethanol-fed Wistar rats [1] = assay: Oxidative stress parameters in liver of ethanol-fed rats (Lieber-DeCarli diet); type: in vivo; set-up: GR activity reduction compared to disease group / increase of ethanol effect on GR activity / hydrogen peroxide amount reduced below the reference value: concentration or dose not given beside the values; conditions: rat liver; for reduction of ethanol effect on hydrogen peroxide: I-ol, I-an 0.4/4/40 mg/kg b.w., UDCA 40 mg/kg; for reduction of ethanol effect on hydrogen peroxide / hydrogen peroxide decrease compared to disease group / reduction of ethanol effect on reduced glutathione (GSH): oral; for reduction of ethanol effect on hydrogen peroxide / hydrogen peroxide decrease compared to disease group / reduction of ethanol effect on reduced glutathione (GSH) / SRA decrease compared to disease group: 10 weeks; for increase of ethanol effect on GR activity: as worded in Fig 3 legend; for GSH elevation compared to disease group / SRA decrease compared to disease group: average over 0.4/4/40 mg/kg b.w.; for SRA decrease compared to disease group: daily oral gavage; for reduction of ethanol effect on glutathione reductase (GR) activity: average over doses (UDCA 40 mg/kg); for GPx activity below the reference value in healthy animals: highest concentration (UDCA 40 mg/kg b.w.); for reduction of ethanol effect on glutathione peroxidase (GPx) activity: on average
Excerpt: A total of 68 female Wistar rats (Institute of Pharmacology and Biochemistry Breeding House, Minsk, Belarus) aged 80–90 days and weighting 180–200 g at the beginning of the experiments were used in the study. Each rat group (n = 6–8) was housed in a separate cage and had free access to the liquid diet during the full study period. Prior to the study, the animals were habituated for seven days to the cage conditions and experimental handling. The rats were maintained in a controlled experimental environment (20–25°C, 40–50% humidity, 12 h light per day, room with a 12-h light/dark cycle).
Rats were divided into ten groups characterized by the diet and the test compounds (S1 Table). Group 1 is the first control group in which a normal solid standard diet was fed for 12 weeks. All other groups received the liquid Lieber-DeCarli (LDC) diet (S2 Table), which combines food and drink in a liquid manner. It was prepared by ssniff Spezialdiäten GmbH, Soest. The addition of maltodextrin to this diet should compensate the pure caloric effect of ethanol, whereby 1.77 g maltodextrin replaces 1 g ethanol. The calorie value of both the control and ethanol diets was the same: 35% calories from fat, 11% from carbohydrates, 18% from protein and 36% from ethanol.
(§1) In the first two weeks rats of all groups–with the exception of group 1 –were fed with LDC diet plus maltodextrin in an appropriate amount to adapt the animals to the liquid diet. Group 2 is the second control group in which the isocaloric diet was administered for further 10 weeks until the end of the experiment. […] The test compounds I-ol, I-an and UDCA were dissolved in a 0.8% aqueous HPMC gel to obtain the appropriate concentrations: (1) I-ol with 0.4, 4 and 40 mg/kg b. w. (2) I-an with 0.4, 4 and 40 mg/kg b. w. (3) UDCA with 40 mg/kg b. w. Rats of group 2 and 3 received only HPMC as a placebo. The LDC diets were fed ad libitum and their intake per cage was controlled daily. The corresponding bottles were stored in the cages from 08:00 a. m. until 06:00 p. m. and replaced by drinking water bottles overnight until 08:00 a. m. in the next morning. Every day at the same time, the test compounds or only HPMC were administered intragastrically by oral gavage with an administration volume of 2 ml/kg b. w. After ten weeks of treatment, the rats were anesthetized with an intraperitoneal injection of a 5% pentobarbital solution and then killed by aorta scarification. Their livers were dissected and liver pieces frozen and stored in liquid nitrogen. A part of the liver was fixed for histological investigations. Blood was collected before sacrifice, centrifuged for serum preparation and finally stored in liquid nitrogen.
The generation of reactive oxygen species (ROS) in rat liver was evaluated by NADPH-induced chemiluminescence with amplification by both luminol for the detection of superoxide (SRA) radical anion and lucigenin detecting hydrogen peroxide as described by Müller-Peddinhaus. In short, liver pieces were homogenized in 0.1 M sodium phosphate buffer pH 7.4. The homogenates were centrifuged at 9,000 x g at 0°C and aliquots were used for the measurement. Reduced glutathione (GSH) was determined by a modified Ellman`s method: 0.2 ml of the liver homogenates’ supernatant were added to 1.6 ml of an EDTA-/sodium […] solution. The absorbance was read at […] against blanks. GSH solution—prepared immediately before use—served as a standard. End products of the lipid peroxidation reaction are equivalent to TBARS (thiobarbituric acid-reacting substances) and their concentration was measured according to Buege et al.. The enzymatic activity of cytosolic glutathione peroxidase (GPx) and microsomal glutathione reductase (GR) were determined as described by Buko at al.. Catalase activity was evaluated by spectrophotometric measurement using hydrogen peroxide as a substrate according to Beers et al.. […]

ethanol-fed Wistar rats [2] = assay: Liver histopathology of ethanol-fed rats; type: in vivo, rat; conditions: I-ol, I-an in their higher concentrations; UDCA 40 mg/kg b.w.; H.E. staining
Description: as §1
Liver samples were selected randomly, fixed in Bouin`s solution and embedded in paraffin wax. Histological sections were prepared and stained with haematoxylin and eosin. Other liver samples were fixed in a solution containing formaldehyde, paraformaldehyde and glutaraldehyde with a subsequent post-fixation in 1% osmium containing phosphate buffer pH 7.4 for further analysis. Liver tissue was embedded in a mixture of butyl-methyl-metacrylates. Semifine sections of 0.5–1.0 μm were stained with Asur II, methylen blue and basic fuxine.

rat liver microsomes = assay: Difference spectra titration of rat liver microsomes; conditions: one specific binding site
Description: Liver microsomes were prepared as follows: Rat liver was homogenized in 33 mM TRIS*HCl pH 7.4, 33 mM KCl, 1 mM EDTA, 250 mM sucrose and protease inhibitors. The homogenate was centrifuged first at 600 g then at 6,500 g for 10 minutes to separate nuclei and mitochondria. Supernatant was centrifuged at 105,000 g for 60 minutes. The pellet (microsomal fraction) was dissolved in 10 mM TRIS*HCl pH 7.4, 10 mM EDTA, 50% glycerol and stored at -80°C [20].
Difference spectra measurements were performed in tandem cuvettes at 37°C. The sample as well as the reference chamber contained rat liver microsomes in 100 mM HEPES buffer (pH 7.6). The baseline was recorded between 365 and 500 nm. Varying concentrations of 12-Imidazolyl-dodecan-1-yl-phosphocholine (5–95 μM) were added to rat microsomes. Difference spectra were obtained after the system reached equilibrium.

[3] = First pharmacokinetic study of I-ol, calculated blood concentration; type: in vivo; conditions: rat
Description: Following these studies, we performed a single pharmacokinetic study with I-ol to get evidence for a possible further development of this lead compound. The complete study is summarized in the Word document " First pharmacokinetic study of I-ol".
Assuming a maximum oral bioavailability of 0.1 percent for I-ol, the following comparison results:
The peroral intake of 0.4 mg I-ol/kg body weight of the rat leads to a blood concentration of 6.3 ng I-ol/ml, which corresponds to 26.3 nmol I-ol/l. An average body weight of 230 g and a blood volume of 14.5 ml was assumed. The molecular mass of I-ol is 240 g/mol. An oral bioavailability of 0.1% was used despite reasonable doubt about the finality of this amount.

[4] = set-up: method as in earlier work; conditions: compared among I-ol, I-an and I-phosphocholines; ref "ω-imidazolyl-alkyl derivatives as new preclinical drug candidates for NASH therapy"; cited from earlier work
[5] = average over 0.4/4/40 mg/kg b.w. (UDCA 40 mg/kg)

Compound	GR activity reduction compared to disease group (ethanol-fed Wistar rats [1]) [%]	reduction of ethanol effect on hydrogen peroxide (ethanol-fed Wistar rats [1])	increase of ethanol effect on GR activity (ethanol-fed Wistar rats [1]) [%]	GSH elevation compared to disease group (ethanol-fed Wistar rats [1]) [%]	hydrogen peroxide decrease compared to disease group (ethanol-fed Wistar rats [1]; [5]) [%]	reduction of ethanol effect on reduced glutathione (GSH) (ethanol-fed Wistar rats [1]; [5]) [%]	SRA decrease compared to disease group (ethanol-fed Wistar rats [1]) [%]	GPx activity elevation compared to disease group (ethanol-fed Wistar rats [1]; average over doses) [%]	reduction of ethanol effect on glutathione reductase (GR) activity (ethanol-fed Wistar rats [1]) [%]	TBARS level below the reference values of healthy animals (ethanol-fed Wistar rats [1]; highest concentration) [%]	GPx activity below the reference value in healthy animals (ethanol-fed Wistar rats [1]) [%]	reduction of ethanol effect on glutathione peroxidase (GPx) activity (ethanol-fed Wistar rats [1])	liver morphology (histopathology, in words) (ethanol-fed Wistar rats [2])	other results
CCCCCCCCCCCCn1ccnc1 [I-an, 1-Imidazolyldodecane]	11	completely reduced	43	94	78	55	43	10	43	31	10	completely reduced	almost complete restoration of the physiological liver morphology	hydrogen peroxide amount reduced below the reference value (ethanol-fed Wistar rats [1]): 56%; reduction of ethanol effect on TBARS (ethanol-fed Wistar rats [1]; [5]): 93%; TBARS decrease compared to disease group (ethanol-fed Wistar rats [1]; average over doses): 40%; GSH value above the reference value of healthy animals (ethanol-fed Wistar rats [1]; highest concentration): 2%
OCCCCCCCCCCCCn1ccnc1 [I-ol]	10	completely reduced	41	62	75	36	36	17	41	11	8	completely reduced	almost complete restoration of the physiological liver morphology	Kd (rat liver microsomes): 578 nM; TBARS decrease compared to disease group (ethanol-fed Wistar rats [1]; highest concentration): 50%; maximum oral bioavailability ([3]; oral, assumed value from first pharmacokinetic study): ≤ 0.1%; calculated blood concentration ([3]; peroral 0.4 mg/kg body weight, bioavailability 0.1% assumed): 26.3 nmol I-ol/l; calculated blood concentration ([3]; peroral 0.4 mg/kg body weight, bioavailability 0.1%, blood volume 14.5 ml, body weight 230 g assumed): 6.3 ng I-ol/ml; calculated blood concentration ([3]; peroral 4 mg/kg, bioavailability 0.1% assumed): 263 nmol/L; calculated blood concentration ([3]; peroral 40 mg/kg, bioavailability 0.1% assumed): 2630 nmol/L; tolerability in acute toxicity study (in words) [4]: best tolerated compound
